What was measured:
Adenosine receptor A1 [1] = biological target: T1, Adenosine receptor A1 (Rattus norvegicus, UniProt P25099); assay: Displacement of [3H]CCPA from adenosine A1 receptor in rat brain cortical membrane; assay type: cell membranes
T1 sequence (P25099 whole entry): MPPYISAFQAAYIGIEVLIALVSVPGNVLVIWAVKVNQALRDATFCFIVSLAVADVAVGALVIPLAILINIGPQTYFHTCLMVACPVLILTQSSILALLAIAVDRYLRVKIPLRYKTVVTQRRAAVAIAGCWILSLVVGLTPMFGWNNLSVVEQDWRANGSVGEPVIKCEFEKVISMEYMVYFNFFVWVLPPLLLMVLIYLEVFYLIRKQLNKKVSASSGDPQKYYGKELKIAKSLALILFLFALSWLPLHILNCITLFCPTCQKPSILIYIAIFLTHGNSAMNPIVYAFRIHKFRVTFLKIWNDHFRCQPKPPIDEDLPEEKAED

[2] = biological target: Adenosine receptor A1 (Rattus norvegicus) (UniProt P25099); assay: Displacement of [3H]CCPA from adenosine A1 receptor in rat brain cortical membrane at 25 uM
Adenosine receptor A2a [3] = biological target: Adenosine receptor A2a (Rattus norvegicus, UniProt P30543)
Adenosine receptor A2a (Rattus norvegicus, UniProt P30543), sequence (P30543 whole entry): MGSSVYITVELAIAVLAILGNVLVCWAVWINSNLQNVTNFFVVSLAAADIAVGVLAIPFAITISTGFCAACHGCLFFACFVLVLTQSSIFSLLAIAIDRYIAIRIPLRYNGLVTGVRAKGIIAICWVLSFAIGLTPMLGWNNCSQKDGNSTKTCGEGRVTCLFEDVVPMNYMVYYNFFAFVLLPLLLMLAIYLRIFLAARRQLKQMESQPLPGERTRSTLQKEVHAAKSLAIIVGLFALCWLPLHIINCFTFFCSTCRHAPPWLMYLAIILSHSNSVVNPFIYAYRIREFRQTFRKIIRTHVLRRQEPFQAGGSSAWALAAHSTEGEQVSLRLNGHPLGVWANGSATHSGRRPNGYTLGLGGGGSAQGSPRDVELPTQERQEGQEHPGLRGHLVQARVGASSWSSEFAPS

Adenosine receptor A3 [4] = biological target: T2, Adenosine receptor A3 (Homo sapiens, UniProt P0DMS8); assay: Displacement of [3H]PSB11 from human adenosine A3 receptor expressed in CHO cells; assay type: cell-based
T2 sequence (P0DMS8 whole entry): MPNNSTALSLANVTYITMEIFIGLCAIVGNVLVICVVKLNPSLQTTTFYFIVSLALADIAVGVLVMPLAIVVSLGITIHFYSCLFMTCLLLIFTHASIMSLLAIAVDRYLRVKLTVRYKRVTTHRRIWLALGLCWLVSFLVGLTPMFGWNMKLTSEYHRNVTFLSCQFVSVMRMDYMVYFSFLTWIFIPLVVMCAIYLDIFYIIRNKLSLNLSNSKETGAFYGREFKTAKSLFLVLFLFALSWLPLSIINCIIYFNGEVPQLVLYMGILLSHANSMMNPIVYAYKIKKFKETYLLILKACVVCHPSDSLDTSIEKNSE

Adenosine receptor A2b = biological target: T3, Adenosine receptor A2b (Homo sapiens, UniProt P29275); assay: Displacement of [3H]ZM-241385 from human adenosine A2B receptor expressed in CHO cells; assay type: cell-based
T3 sequence (P29275 whole entry): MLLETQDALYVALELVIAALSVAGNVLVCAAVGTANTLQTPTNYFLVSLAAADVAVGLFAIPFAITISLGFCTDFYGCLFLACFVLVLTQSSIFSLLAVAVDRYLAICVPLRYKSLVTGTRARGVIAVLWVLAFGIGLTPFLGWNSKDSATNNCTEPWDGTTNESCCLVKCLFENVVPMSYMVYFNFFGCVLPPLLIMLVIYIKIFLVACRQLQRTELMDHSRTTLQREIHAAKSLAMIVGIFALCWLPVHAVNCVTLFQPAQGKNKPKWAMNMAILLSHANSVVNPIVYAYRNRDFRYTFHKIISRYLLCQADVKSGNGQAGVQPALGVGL

[5] = biological target: Adenosine receptor A1 (Rattus norvegicus) (UniProt P25099); assay: Displacement of [3H]CCPA from adenosine A1 receptor in rat brain cortical membrane at 10 uM
[6] = biological target: T4, Adenosine receptor A1 (Homo sapiens) (UniProt P30542); assay: Displacement of [3H]CCPA from human adenosine A1 receptor expressed in CHO cells at 25 uM; assay type: cell-based
T4 sequence (whole entry): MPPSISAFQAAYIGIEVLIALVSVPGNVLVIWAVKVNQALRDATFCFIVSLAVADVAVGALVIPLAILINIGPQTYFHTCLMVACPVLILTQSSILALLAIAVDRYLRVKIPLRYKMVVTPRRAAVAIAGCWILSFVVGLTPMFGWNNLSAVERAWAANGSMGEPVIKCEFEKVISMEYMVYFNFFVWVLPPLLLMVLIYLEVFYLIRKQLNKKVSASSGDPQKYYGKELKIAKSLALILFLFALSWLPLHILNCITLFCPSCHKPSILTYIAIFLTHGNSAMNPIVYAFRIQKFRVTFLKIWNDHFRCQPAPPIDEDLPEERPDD

[7] = biological target: T5, Adenosine receptor A2b (Homo sapiens) (UniProt P29275); assay: Displacement of [3H]ZM-241385 from human adenosine A2B receptor expressed in CHO cells at 10 uM; assay type: cell-based
T5 sequence (whole entry): T3 sequence (P29275 whole entry)

Adenosine receptor A1 [8] = biological target: T6, Adenosine receptor A1 (Homo sapiens, UniProt P30542); assay: Displacement of [3H]CCPA from human adenosine A1 receptor expressed in CHO cells; assay type: cell-based
T6 sequence (P30542 whole entry): T4 sequence (whole entry)

Adenosine receptor A2a [9] = biological target: Adenosine receptor A2a (Homo sapiens, UniProt P29274); assay: Displacement of [3H]MSX2 from human adenosine A2A receptor expressed in CHO cells; assay type: cell-based
Adenosine receptor A2a (Homo sapiens, UniProt P29274), sequence (P29274 whole entry): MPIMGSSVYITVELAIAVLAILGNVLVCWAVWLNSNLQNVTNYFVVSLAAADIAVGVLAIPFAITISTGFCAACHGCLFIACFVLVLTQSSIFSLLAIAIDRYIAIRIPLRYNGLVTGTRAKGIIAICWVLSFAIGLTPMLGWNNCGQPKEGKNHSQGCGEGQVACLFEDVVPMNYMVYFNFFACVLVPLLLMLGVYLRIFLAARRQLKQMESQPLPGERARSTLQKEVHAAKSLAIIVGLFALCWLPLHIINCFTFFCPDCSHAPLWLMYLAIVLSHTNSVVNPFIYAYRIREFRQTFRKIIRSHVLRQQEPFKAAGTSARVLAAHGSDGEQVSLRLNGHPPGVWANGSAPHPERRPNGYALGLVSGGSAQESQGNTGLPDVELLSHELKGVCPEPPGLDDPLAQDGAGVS

Adenosine receptor A3 [10] = biological target: T2, Adenosine receptor A3; assay: (§1) Displacement of [3H]PSB11 from human adenosine A3 receptor expressed in CHO cells at 10 uM; assay type: cell-based
Mus musculus [11] = assay: Toxicity in Albino F1 mouse assessed as tonic extension followed by death at 30 mg/kg after 0.5 hrs; assay type: organism-based; design: dose 30 mg/kg; details: in vivo
[12] = biological target: Adenosine receptor A2a (Rattus norvegicus) (UniProt P30543); assay: Displacement of [3H]MSX2 from adenosine A2A receptor in rat brain striatal membrane at 10 uM; assay type: cell membranes
Adenosine receptor A2a (Rattus norvegicus), sequence (P30543 whole entry): as the sequence (P30543 whole entry) above

Mus musculus [13] = assay: Toxicity in Albino F1 mouse assessed as continuous seizure followed by death at 100 mg/kg after 0.5 hrs; assay type: organism-based; design: dose 100 mg/kg; details: in vivo
[14] = biological target: T7, Adenosine receptor A3 (Homo sapiens) (UniProt P0DMS8); assay: as §1; assay type: cell-based
T7 sequence (whole entry): T2 sequence (P0DMS8 whole entry)

[15] = biological target: Adenosine receptor A2a (Rattus norvegicus) (UniProt P30543); assay: Displacement of [3H]MSX2 from adenosine A2A receptor in rat brain striatal membrane at 25 uM; assay type: cell membranes
[16] = biological target: T5, Adenosine receptor A2b (Homo sapiens); assay: Displacement of [3H]PSB298 from human adenosine A2B receptor expressed in CHO cells at 10 uM; assay type: cell-based
Mus musculus [17] = assay: Toxicity in Albino F1 mouse assessed as continuous seizure at 100 mg/kg after 0.5 hrs; assay type: organism-based; design: dose 100 mg/kg; details: in vivo
Mus musculus [18] = assay: Toxicity in Albino F1 mouse assessed as death following tonic extension at 300 mg/kg after 0.5 hrs; details: in vivo
Mus musculus [19] = assay: Toxicity in Albino F1 mouse assessed as tonic extension followed by death at 300 mg/kg after 0.5 hrs; assay type: organism-based; design: dose 300 mg/kg; details: in vivo

Ki (Adenosine receptor A1 [1]) [µM]	Ki (Adenosine receptor A2a [3]) [µM]	Ki (Adenosine receptor A3 [4]) [µM]	Compound	also measured
≥ 25	1.21		COc1ccc(CCN2CCCn3c2nc2c3c(=O)n(C)c(=O)n2C)cc1OC	Activity [2]: 33%
0.62	0.86	3.66	CCCn1c(=O)c2c(nc3n2CCCN3CCc2ccccc2)n(CCC)c1=O	Ki (Adenosine receptor A2b): 0.59 µM
10	1.33		Cn1c(=O)c2c(nc3n2CCCN3CCOCc2ccc(Cl)cc2)n(C)c1=O	Activity [5]: 48%
25		> 10	Cn1c(=O)c2c(nc3n2CCCN3CCc2ccc(O)cc2)n(C)c1=O	Activity [6]: 34%; Ki (Adenosine receptor A1 [8]): ≥ 25 µM; Inhibition (Adenosine receptor A3 [10]): 9%
10	4.6	> 1	Cc1ccc(OCCN2CCCn3c2nc2c3c(=O)n(C)c(=O)n2C)cc1	Activity [5]: 41%
1.79	0.9	> 1	CCCn1c(=O)c2c(nc3n2CCCN3CCc2c[nH]c3ccccc23)n(CCC)c1=O	
	1.22		CC(=O)OC(c1ccccc1)C(C)N1CCCn2c1nc1c2c(=O)n(C)c(=O)n1C (configuration not stated)	
> 10	> 10		Cn1c(=O)c2c(nc3n2CCCN3CCOC(=O)Nc2ccccc2)n(C)c1=O	Activity [12]: 35%; Activity [5]: 3%
25	1.11		Cn1c(=O)c2c(nc3n2CCCN3CC(O)c2ccccc2)n(C)c1=O (configuration not stated)	Activity [2]: 49%
4.22	25	> 1	Cn1c(=O)c2c(nc3n2CCCN3CCOc2ccc(Cl)cc2)n(C)c1=O	Activity [7]: 44%; Activity [14]: 45%; Activity [15]: 49%; Ki (Adenosine receptor A2b): 10 µM
25	2.16		CC(C(O)c1ccccc1)N1CCCn2c1nc1c2c(=O)n(C)c(=O)n1C (configuration not stated)	Activity [2]: 45%
10	2.02	> 1	CC(=O)Nc1ccc(OCCN2CCCn3c2nc2c3c(=O)n(C)c(=O)n2C)cc1	Activity [5]: 41%
3.85	0.37		COc1ccc(CCN2CCCn3c2nc2c3c(=O)n(C)c(=O)n2C)cc1	
7.55	20		Cn1c(=O)c2c(nc3n2CCCN3CCNCc2ccccc2)n(C)c1=O	Activity [16]: 27%; Ki (Adenosine receptor A2b): > 10 µM
3.16	3.69		Cn1c(=O)c2c(nc3n2CCCN3CCOCc2ccccc2)n(C)c1=O	
	1		CC(=O)OC(CN1CCCn2c1nc1c2c(=O)n(C)c(=O)n1C)c1ccccc1 (configuration not stated)	Activity [2]: 50%
0.82	1.33	> 1	CCCn1c(=O)c2c(nc3n2CCCN3CCc2ccc(OC)c(OC)c2)n(CCC)c1=O	
1.99	1.1		Cn1c(=O)c2c(nc3n2CCCN3CCCc2ccccc2)n(C)c1=O	Activity (Mus musculus [17]): Toxic
25	0.33	> 10	Cn1c(=O)c2c(nc3n2CCCN3CCc2c[nH]c3ccccc23)n(C)c1=O	Activity [6]: 21%; Activity [7]: 56%; Ki (Adenosine receptor A1 [8]): > 25 µM; Ki (Adenosine receptor A2a [9]): 4.56 µM; Inhibition (Adenosine receptor A3 [10]): 21%; Ki (Adenosine receptor A2b): 10 µM
3.68	3.05		Cn1c(=O)c2c(nc3n2CCCN3CCOCc2ccc(F)cc2)n(C)c1=O	
> 10	> 10		Cn1c(=O)c2c(nc3n2CCCN3CCOC(=O)Nc2cccc(Cl)c2)n(C)c1=O	Activity [12]: 33%; Activity [5]: 10%
> 25	> 25	> 10	Cn1c(=O)c2c(nc3n2CCCN3CCc2ccccn2)n(C)c1=O	Activity [15]: 37%; Ki (Adenosine receptor A2b): 13.4 µM
10	4.29	> 1	Cn1c(=O)c2c(nc3n2CCCN3CCOC/C=C/c2ccccc2)n(C)c1=O	Activity [5]: 36%
2.63	14		Cn1c(=O)c2c(nc3n2CCCN3CCNCc2ccc(F)cc2)n(C)c1=O	
3.5	1.09		Cn1c(=O)c2c(nc3n2CCCN3CCOc2ccc(Cl)cc2Cl)n(C)c1=O	

Compound	Ki (Adenosine receptor A1 [1]) [µM]	Ki (Adenosine receptor A2a [3]) [µM]	Ki (Adenosine receptor A3 [4]) [µM]	also measured
Cn1c(=O)c2c(nc3n2CCCN3CCc2ccccc2)n(C)c1=O	> 25	0.32	> 10	Activity [6]: 44%; Activity [7]: 57%; Ki (Adenosine receptor A1 [8]): > 10 µM; Ki (Adenosine receptor A2a [9]): 2.89 µM; Inhibition (Adenosine receptor A3 [10]): 20%; Activity (Mus musculus [11]): Toxic; Activity [2]: 31%; Ki (Adenosine receptor A2b): 10 µM
Cn1c(=O)c2c(nc3n2CCCN3CCOC(=O)Nc2ccc(F)cc2)n(C)c1=O	> 10	≥ 10		Activity [12]: 42%; Activity (Mus musculus [13]): Toxic; Activity [5]: 13%
Cn1c(=O)c2c(nc3n2CCCN3CCOC(=O)Nc2ccc(Cl)cc2)n(C)c1=O	> 10	> 10		Activity [12]: 32%; Activity (Mus musculus [18]): Toxic; Activity [5]: 24%
Cn1c(=O)c2c(nc3n2CCCN3CCc2ccc(Cl)cc2)n(C)c1=O	6.47	0.48		Activity (Mus musculus [19]): Toxic

— ChEMBL document CHEMBL1137492, “Phenylethyl-substituted pyrimido[2,1-f]purinediones and related compounds: structure-activity relationships as adenosine A(1) and A(2A) receptor ligands” (Bioorg Med Chem, 2007)
